For series [1], the target named is T1, (MOUSE)NAT2*1 (Mus musculus, UniProt P50295).
T1 construct: made in house
T1 sequence (P50295 1-290): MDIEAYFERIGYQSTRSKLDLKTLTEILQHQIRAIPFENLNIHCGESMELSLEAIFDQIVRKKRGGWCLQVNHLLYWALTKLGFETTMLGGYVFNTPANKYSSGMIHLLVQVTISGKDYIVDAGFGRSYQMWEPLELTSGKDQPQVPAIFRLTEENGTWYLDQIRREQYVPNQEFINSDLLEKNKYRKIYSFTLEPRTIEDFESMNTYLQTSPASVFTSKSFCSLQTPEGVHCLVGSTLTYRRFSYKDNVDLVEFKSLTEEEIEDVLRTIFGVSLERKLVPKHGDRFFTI
Nature of the series: Substrate specific N-acetylation profile. Format: biochemical. Particulars: substrate 500 μM, relative to substrate with highest specific activity (100%), mean of 3 ± SD.

In series [2] the test system is (MESAU)NAT2*1. Also on record: method as in PMID 15627487, PMID 18280460. As to conditions: substrate 500 μM, relative to substrate with highest specific activity (100%), mean of 3 ± SD, ref [8], [22]; cited from earlier work.
The target of series [3] is T2, (MOUSE)NAT2_R127G (Mus musculus, UniProt P50295, R127G).
T2 construct: made in house
T2 sequence (P50295 1-290 R127G): T1 sequence (P50295 1-290) with R127G
Put plainly: Substrate specific N-acetylation profile. Format: biochemical. As to conditions: (MOUSE)NAT2 R127G; substrate 500 μM; relative to substrate with highest specific activity (100%); mean of 3 ± SD.

Series [4] has as its target T3, (HUMAN)NAT2*4 (Homo sapiens, UniProt P11245).
T3 construct: made in house
T3 sequence (P11245 1-290): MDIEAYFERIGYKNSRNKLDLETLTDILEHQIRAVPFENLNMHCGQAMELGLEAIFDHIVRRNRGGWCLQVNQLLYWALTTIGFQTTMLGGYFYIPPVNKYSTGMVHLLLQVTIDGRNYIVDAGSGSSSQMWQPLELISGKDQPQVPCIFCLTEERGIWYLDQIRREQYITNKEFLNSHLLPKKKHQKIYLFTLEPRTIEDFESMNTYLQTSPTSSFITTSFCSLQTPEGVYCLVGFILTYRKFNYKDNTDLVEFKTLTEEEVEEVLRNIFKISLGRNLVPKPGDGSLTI
Also on record: method as in PMID 15627487, PMID 18280460. Particulars: substrate 500 μM, relative to substrate with highest specific activity (100%), mean of 3 ± SD, ref [8], [22]; cited from earlier work.

For series [5], the target named is T4, (MOUSE)NAT2_R127L (Mus musculus, UniProt P50295, R127L).
T4 construct: made in house
T4 sequence (P50295 1-290 R127L): T1 sequence (P50295 1-290) with R127L
Put plainly: Substrate specific N-acetylation profile. It is filed as biochemical. As to conditions: (MOUSE)NAT2 R127L; substrate 500 μM; relative to substrate with highest specific activity (100%); mean of 3 ± SD.

Series [6] concerns the target T5, (MOUSE)NAT1*1 (Mus musculus, UniProt P50294).
T5 construct: The open reading frame of (MOUSE)Nat1*1 [32] was subcloned; hexa-His (N, cleaved yes); made in house; host or cells: Escherichia coli BL21(DE3)CodonPlus-RIL
T5 sequence (P50294 1-290): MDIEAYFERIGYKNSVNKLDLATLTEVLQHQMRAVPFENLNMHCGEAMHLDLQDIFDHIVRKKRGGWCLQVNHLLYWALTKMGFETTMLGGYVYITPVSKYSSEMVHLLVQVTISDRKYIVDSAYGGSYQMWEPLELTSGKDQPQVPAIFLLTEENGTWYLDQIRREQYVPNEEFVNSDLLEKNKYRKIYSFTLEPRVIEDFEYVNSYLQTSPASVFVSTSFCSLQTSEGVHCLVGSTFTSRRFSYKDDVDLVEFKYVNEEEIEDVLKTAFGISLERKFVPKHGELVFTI
Nature of the series: Substrate specific N-acetylation profile. Format: biochemical. As to conditions: for % specific activity values: substrate 500 μM, relative to substrate with highest specific activity (100%), mean of 3 ± SD.

For series [7], the system named is (HUMAN)NAT1*4. Set-up: method as in PMID 15627487, PMID 18280460. Particulars: substrate 500 μM, relative to substrate with highest specific activity (100%), mean of 3 ± SD, ref [8], [22]; cited from earlier work.
Series [8] deals with T6, (MOUSE)NAT2_F125S (Mus musculus, UniProt P50295, F125S).
T6 construct: His tag (only implied by Ni-NTA purification) (cleaved yes); made in house; host or cells: E. coli Rosetta(DE3)pLysS
T6 sequence (P50295 1-290 F125S): T1 sequence (P50295 1-290) with F125S
Put plainly: Substrate specific N-acetylation profile. Format: biochemical. Particulars: (MOUSE)NAT2 F125S; substrate 500 μM; relative to substrate with highest specific activity (100%); mean of 3 ± SD.

For series [9] the following is noted: ref [56]–[61]; cited from earlier work.
Series [10] addresses T5, (MOUSE)NAT1*1. Also on record: method as in PMID 20170182. Particulars: in presence of (MOUSE)NAT1*1; ref [24]; cited from earlier work.
Series [11] deals with T3, (HUMAN)NAT2*4. Nature of the series: Inhibition of NAT activity (AcCoA hydrolysis rate). Particulars: AcCoA 400 μM, substrate 2-aminofluorene, 5% DMSO. Format: biochemical. From the text:
(§1) The final concentration of dimethyl sulphoxide (DMSO) in reaction mixes was 5% (v/v). IC50 values were estimated using a dose–response-based regression model in Kyplot® software. Curves were fitted by least squares analysis with confidence limits of 95%.

In series [12] the target is T6, (MOUSE)NAT2_F125S. Put plainly: Inhibition of NAT activity (AcCoA hydrolysis rate). Particulars: AcCoA 400 μM, substrate 5AS, 5% DMSO. It is filed as biochemical.
Text: as §1

Series [13] has as its target T5, (MOUSE)NAT1*1. Nature of the series: Inhibition of NAT activity (AcCoA hydrolysis rate). It is filed as biochemical. Particulars: AcCoA 400 μM, substrate 5AS, 5% DMSO.
Text: as §1

The target in series [14] is T2, (MOUSE)NAT2_R127G. Set-up: method as in PMID 23940600. As to conditions: in presence of (MOUSE)NAT2_R127G; ref [25]; cited from earlier work.
Series [15] concerns (HUMAN)NAT1*4. Also on record: method as in PMID 23940600. Particulars: read-out: IC50 with naphthoquinone 1, AcCoA 400 μM, substrate 4ABA, ref [25]; cited from earlier work.
The target in series [16] is T3, (HUMAN)NAT2*4. Also on record: method as in PMID 23940600. Particulars: in presence of (HUMAN)NAT2*4; ref [25]; cited from earlier work.
Series [17] addresses T1, (MOUSE)NAT2*1. Also on record: method as in PMID 23940600, PMID 20170182. As to conditions: read-out: IC50 with naphthoquinone 1, AcCoA 400 μM, substrate 4ABA, ref [25], [24]; cited from earlier work.
Series [18] has as its system (MESAU)NAT2*1. Also on record: method as in PMID 24758871. Particulars: read-out: IC50 with naphthoquinone 1, AcCoA 400 μM, substrate 4ABA, ref [26]; cited from earlier work.
Series [19] deals with T4, (MOUSE)NAT2_R127L. Also on record: method as in PMID 23940600. As to conditions: in presence of (MOUSE)NAT2_R127L; ref [25]; cited from earlier work.
The target in series [20] is T1, (MOUSE)NAT2*1. Set-up: method as in PMID 23940600, PMID 20170182. Particulars: in presence of (MOUSE)NAT2*1; ref [25], [24]; cited from earlier work.

Molecules are shown by their SMILES. Changes are numbered by the printed parent chain. Marks after values point to notes of the source that are not given here.

As to `CCCCCCOc1ccc(N)cc1` [HOA, 4-hexyloxyaniline], the “% specific activity values” at (MOUSE)NAT2*1 [1] is given as 23 ± 2%; in the series on (MESAU)NAT2*1 [2], 35 ± 1%; at (MOUSE)NAT2_R127G [3], 59 ± 3%; at (HUMAN)NAT2*4 [4], 51 ± 2%; on (MOUSE)NAT2_R127L [5] it was 80 ± 8%; on (MOUSE)NAT1*1 [6], 3 ± 4%. Besides, the “% specific activity values” with (HUMAN)NAT1*4 [7] is 12 ± 4%; at (MOUSE)NAT2_F125S [8], 47 ± 1%. Also, the “pKa(H) (NH3^+)” value in series [9] is given as 5.1 (NH3^+).

In the case of `NNC(=O)c1ccncc1` [INH, isoniazid], the “% specific activity values” is 2 ± 2% at (MOUSE)NAT2*1 [1]; 1 ± 1% in the series with (MESAU)NAT2*1 [2]; 63 ± 10% at (MOUSE)NAT2_R127G [3]; 62 ± 2% on (HUMAN)NAT2*4 [4]; 76 ± 14% at (MOUSE)NAT2_R127L [5]; 100 ± 6% at (MOUSE)NAT1*1 [6]. For the same compound, the “% specific activity values” with (HUMAN)NAT1*4 [7] was 0 ± 2%; at (MOUSE)NAT2_F125S [8], 38 ± 2%. Also, the Maximal specific activity on (MOUSE)NAT1*1 [6] (best substrate, 500 μM) came out at 104 µM/s/mg. In [9], the “pKa(H) (NH2^+-NH3^+)” value is recorded as 2.0. Further, the “pKa(H) (NH-NH3^+)” value in series [9] is on record as 3.9. Further, the “pKa(H) (pyridine)” value in series [9] is reported as 10.8.

As to `Nc1ccc(Oc2ccccc2)cc1` [POA, 4-phenoxyaniline], the “% specific activity values” on (MOUSE)NAT2*1 [1] is reported as 20 ± 2%; in the series on (MESAU)NAT2*1 [2], 22 ± 1%; at (MOUSE)NAT2_R127G [3], 67 ± 1%; on (HUMAN)NAT2*4 [4], 62 ± 11%; on (MOUSE)NAT2_R127L [5] it was 61 ± 2%; on (MOUSE)NAT1*1 [6] it was 6 ± 1%. The “% specific activity values” is 17 ± 7% with (HUMAN)NAT1*4 [7] and 62 ± 2% on (MOUSE)NAT2_F125S [8]. Further, the “pKa(H) (NH3^+)” value in [9] is recorded as 4.36 (NH3^+).

Take `Cc1cc(C)nc(NS(=O)(=O)c2ccc(N)cc2)n1` [SMZ, sulfamethazine]: the “% specific activity values” is 4 ± 1% at (MOUSE)NAT2*1 [1]; 1 ± 1% in the series on (MESAU)NAT2*1 [2]; 19 ± 2% on (MOUSE)NAT2_R127G [3]; 46 ± 1% at (HUMAN)NAT2*4 [4]; 3 ± 1% on (MOUSE)NAT2_R127L [5]; 88 ± 6% at (MOUSE)NAT1*1 [6]. The “% specific activity values” with (HUMAN)NAT1*4 [7] and at (MOUSE)NAT2_F125S [8] was 1 ± 1% throughout. In addition, the “pKa(H) (NH3^+)” value in series [9] is 2.4. The “pKa(H) (sulfonamide)” value in [9] is listed as 7.4.

One may read the IC50 as the concentration needed to halve the response being measured. `Cc1cc(C)cc(NC2=C(NS(=O)(=O)c3ccccc3)C(=O)c3ccccc3C2=O)c1` [naphthoquinone 1, N-(3-(3,5-dimethylphenylamino)-1,4-dioxo-1,4-dihydronaphthalen-2-yl)benzenesulphonamide]: the “λ max of naphthoquinone 1” value on (MOUSE)NAT1*1 [10] is 498^b nm; at (MOUSE)NAT2_R127G [14], 498^a nm; on (HUMAN)NAT2*4 [16] it was 498^a nm; at (MOUSE)NAT2_R127L [19], 498^a nm; at (MOUSE)NAT2*1 [20], 625^a,b nm. Besides, the half-maximal inhibitory concentration (IC50) is above 100 µM at (HUMAN)NAT2*4 [11]; 68.7 µM against (MOUSE)NAT2_F125S [12]; 130 µM at (MOUSE)NAT1*1 [13]; 5.3 µM in the series with (HUMAN)NAT1*4 [15]; 1.3 µM at (MOUSE)NAT2*1 [17]; 89 µM in the series with (MESAU)NAT2*1 [18].

Source of the values: article PMC4258814, “Differences between murine arylamine N-acetyltransferase type 1 and human arylamine N-acetyltransferase type 2 defined by substrate specificity and inhibitor binding” (BMC Pharmacology & Toxicology, 2014).
